How the values were obtained:
[1] = tested on: HCT-116 colon cancer cell lines; test: Matrigel Invasion Assay on HCT-116 colon cancer cell line; type: cell-based, human; conditions: HCT-116, Matrigel, 24 hours treatment, vs DMSO
Description: To evaluate the metastasis inhibitory efficacy of the compounds of the present invention on HCT-116 colon cancer cell lines, an Invasion Assay using Matrigel was performed to assess the cells' invasion ability.
First, Matrigel was thawed on ice in RPMI-1640 medium without FBS, then diluted with DMEM at a ratio of 1:20.
The diluted Matrigel mixture was applied to the upper chamber at 100 μl per well, and 750 μl of RPMI-1640 without FBS was added to the lower chamber.
The plates were then incubated at 37° C. for 1 hour to allow the Matrigel to solidify.
After coating, the Matrigel mixture in the upper chamber was removed using a pipette, and the chamber was washed with RPMI without FBS.
Human-derived colorectal cancer cell line HCT-116, obtained from the Korean Cell Bank, was cultured in RPMI-1640 medium containing 10% FBS.
Following stabilization, the cells were harvested using Trypsin-EDTA treatment, centrifuged at 1,200 rpm for 3 minutes, the supernatant was removed, and the cells were resuspended in the same medium, the medium in the lower chamber was replaced with 750 μl of RPMI-1640 supplemented with 10% FBS, and the cells were seeded into the upper chamber at a density of 5×10^4 cells/well.
The cells were cultured for 24 hours after attachment, and then the compounds according to the present invention (G078, G085, G086, G088, G089, PBK-2024-010, PBK-2025-010, PBK-2025-013, PBK-2025-016) and the control substance DMSO were diluted and added to the upper chamber after removing the medium.
Additionally, the medium in the lower chamber was replaced with fresh RPMI-1640 containing FBS, and the culture was continued.
After an additional 24 hours, the medium was removed, and 1 ml of methanol was added for 10 minutes to fix the cells.
Subsequently, 1 ml of Hematoxylin was added and reacted for 5 minutes, followed by 1 ml of Eosin, which was reacted for 30 seconds. The sample was then washed with distilled water (DW).
After staining was complete, any remaining cells in the upper chamber were removed. Finally, the infiltrated cells were observed under a microscope, photographed, and the degree of infiltration was analyzed.

PDK1 = biological target: T1, PDK1 (Homo sapiens, UniProt O15530); test: IC50 for inhibiting PDK1 kinase activity; type: biochemical
T1 construct: purchased Promega V9681
T1 sequence (O15530 1-556): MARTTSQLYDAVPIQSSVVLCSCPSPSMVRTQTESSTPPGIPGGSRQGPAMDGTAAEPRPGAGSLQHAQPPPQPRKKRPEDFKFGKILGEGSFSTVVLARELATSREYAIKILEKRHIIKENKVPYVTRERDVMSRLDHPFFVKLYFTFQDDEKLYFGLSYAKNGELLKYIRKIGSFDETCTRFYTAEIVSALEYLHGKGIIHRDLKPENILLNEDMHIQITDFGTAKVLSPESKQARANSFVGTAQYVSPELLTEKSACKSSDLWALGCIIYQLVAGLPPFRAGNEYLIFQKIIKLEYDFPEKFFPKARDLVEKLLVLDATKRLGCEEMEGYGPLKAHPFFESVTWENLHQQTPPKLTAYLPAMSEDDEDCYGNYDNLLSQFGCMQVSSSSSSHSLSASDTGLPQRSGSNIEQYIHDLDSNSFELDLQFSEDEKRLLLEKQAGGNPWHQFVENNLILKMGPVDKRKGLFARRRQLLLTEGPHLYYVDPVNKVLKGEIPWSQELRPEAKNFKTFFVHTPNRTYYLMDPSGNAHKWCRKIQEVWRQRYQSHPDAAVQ
Description: Additionally, enzyme kinetics analysis was performed to quantitatively analyze the effect of the compounds of the present invention on the enzymatic activity of PDK1 (3-Phosphoinositide-dependent protein kinase-1) and to confirm the inhibition pattern.
Prior to the analysis, the half-maximal inhibitory concentration (IC50) values of the compounds GO15F, GO86, and GO88 of the present invention for inhibiting PDK1 kinase activity were determined, and the results are shown in FIG. 4.

[2] = biological target: T2, full-length PDK1 (PDK1-FL) (Homo sapiens, UniProt O15530); test: Binding affinity by Microscale Thermophoresis (MST), full-length PDK1; conditions: Kd full-length vs PKD fragment
T2 construct: the full-length (PDK1-FL) protein of human-derived PDK1; His tag (inferred by me from the Ni-NTA purification); made in house; host or cells: Sf9 insect cells, baculovirus
T2 sequence (O15530 1-556): T1 sequence (O15530 1-556)
Description: Microscale Thermophoresis (MST) analysis was performed to quantitatively measure the binding affinity between PDK1 protein and substrate peptides (PDKTide) or the company-developed low-molecular-weight compound (GO88).
The target proteins were the full-length (PDK1-FL) protein of human-derived PDK1 and the Protein Kinase Domain (PKD) fragment, which were expressed using a baculovirus expression system in insect cell lines (Sf9).
The purity of the purified proteins was confirmed by SDS-PAGE and Coomassie Brilliant Blue staining.
The purified protein was labeled with a fluorescent label using the Monolith NT™ RED-NHS Protein Fluorescent Labeling Kit (NanoTemper).
Specifically, 20 µM of the protein was dissolved in PBS (pH 7.4) buffer, mixed with the fluorescent reagent, and reacted at room temperature under dark conditions for 30 minutes. The mixture was then buffered with MST analysis buffer (50 mM HEPES, 150 mM NaCl, 1 mM DTT, 0.05% Tween-20, pH 7.5). […]
The reaction samples were injected into an MST-specific capillary (NanoTemper) and analyzed using a Monolith NT.115 device (NanoTemper) under laser intensity conditions. […]
The measured data were analyzed using MO. Affinity Analysis software (NanoTemper), and the dissociation constant (Kd) was calculated from the binding curve.

[3] = tested on: human lung fibroblasts MRC-5; test: TGF-β induced Collagen I expression in MRC-5 cells (Western blot); type: cell-based; conditions: MRC-5, TGF-β (5 ng/ml), 0.5 μM and 1 μM, 24 hours
Description: To confirm that the compound of the present invention directly acts on fibrosis-related mechanisms, in vitro experiments were performed using human lung fibroblasts MRC-5 cell lines (Korea Cell Bank).
First, MRC-5 cells were seeded at 5×10^3 cells per well in a 6-well plate and stabilized for 24 hours.
Subsequently, experimental groups were established, including a control group, a group treated with TGF-β (5 ng/ml) alone, and groups treated with TGF-β and the compound GO88 from the present invention at concentrations of 0.5 μM and 1 μM, respectively.
After treating each group with the drugs for 24 hours, the cell medium was removed, and the cells were washed twice with cold PBS. Then, RIPA lysis buffer containing phosphatase inhibitor and protease inhibitor was added to each group to extract proteins.
The extracted proteins were incubated at 4° C. for 30 minutes, then centrifuged at 13,000 rpm for 15 minutes, and the supernatant was collected. The total protein concentration was measured using the BCA protein quantification method.
Subsequently, the proteins were separated by SDS-PAGE, transferred to a PVDF membrane, and Western blot analysis was performed.
The expression levels of Collagen I, a marker related to pulmonary fibrosis, were confirmed, with GAPDH used as an internal control.

Row | IC50 (PDK1) | binding affinity of full-length PDK1 compared to the PDK fragment [2] | Molecule | number of infiltrated cells (invasion) [1] | protein expression of Collagen I [3]
1 | 0.0113 µM |  | 12-[4-(2,2-dimethylmorpholin-4-yl)]dodecyl-N-(6-aminopurine-2-yl) carboxamide [Compound 11] | reduction in the number of infiltrated cells | 
2 |  | approximately six times stronger | Nc1ncccc1C(=O)NCCCCCCCCCCCCN1CCNCC1 [Compound 14, 2-Amino-N-(12-(piperazin-1-yl)dodecyl)nicotinamide] |  | inhibited in a concentration-dependent manner

Source: US20260183302A1, “PDK1 REGULATORY COMPOUND AND COMPOSITION CONTAINING THE SAME” (PROVIBIO CO., LTD., priority 2024, published 2026)
